# According to patent publication US6362352B1, “F18-labeled thia fatty acids and methods of making and using the same” (Duke University, priority 1999, dated 2002):
# How the values were obtained:
# myocardium = conditions: cited from earlier work
# [1] = PET imaging studies in patients with ischemic cardiomyopathy; assay type: in vivo; conditions: same subjects
# Protocol: PET imaging studies were performed with 16F4THA in patients with ischemic cardiomyopathy. Conventional nuclear medicine perfusion scans were obtained in the same subjects.
# isolated rat hearts = test: Tracer uptake versus palmitate beta-oxidation rate in isolated perfused rat hearts; parameters: species or system Sprague Dawley rats; conditions: Langendorff perfusion, 0.15 mM palmitate, 5 mM glucose; both normoxic (95% oxygen) and hypoxic (35% oxygen) conditions
# Protocol: Model 4-thia analogs (16-[^18F]fluoro-4-thia-hexadecanoic acid and 12-[^18F]fluoro-4-thia-dodecanoic acid) were examined as tracers in isolated rat hearts. The perfusate was Krebs-Hensleit buffer with 1% albumin, 0.15 mM palmitate, and 5 mM glucose. Sprague Dawley rats (200-225 g) were fed ad libetum. The hearts were excised from pentobarbital-anesthetized animals and perused at 7 ml/min in Langendorff retrograde fashion. The perfusate was gassed with either 95% oxygen (normoxic) or 35% oxygen (hypoxic) gas mixture. The gases comprising the remaining fraction were nitrogen and carbon dioxide (5% for both). The tracer was administered as a bolus or as a pulse infusion into the isolated rat hearts. Pulse infusion allowed absolute quantification of ^18F accumulation rates that reflect the metabolic rate of the tracer in the heart. Clearance rates are measured during the washout phase of these experiments. Beta-oxidation rates of 9,10[^3H] palmitate were measured by collection of venous effluent samples and separation of titrated water.
structure (smiles),measurement,setting,value
CCCC([18F])CCCCCCCSCCCCC(=O)O (stereo not shown) [Compound 14F6THA],tracking of beta-oxidation of palmitate,myocardium; a number of conditions,tracks beta-oxidation of palmitate
same,sensitivity to inhibition of beta-oxidation in myocardium,myocardium; hypoxia with normal blood flow,insensitive
"O=C(O)CCSCCCCCCCCCCCC[18F] [Compound 16F4THA, 16-[^18F]Fluoro-4-thia-hexadecanoic acid]",quality of PET scans compared with conventional nuclear medicine perfusion scans,[1],superior quality
"O=C(O)CCCCSCCCCCCCCCCC[18F] [Compound 17F6THA, 17-[^18F]Fluoro-6-thia-heptadecanoic acid]",correlation of beta-oxidation rates with uptake rates of the tracer (r),isolated rat hearts,poor correlation
